{"source": "paper PMC7311426", "about": "“An amphipathic peptide with antibiotic activity against multidrug-resistant Gram-negative bacteria” (Nature Communications, 2020)", "test_system": "E. coli DSA 443 ESBL", "assay": "Murine urinary tract infection (UTI) model", "type": "in vivo, E. coli in OF-1 mice", "conditions": "Prism column statistics", "procedure": "Peritonitis and UTI murine models were performed at the Department of Microbiology & Infection Control, Statens Serum Institute, Copenhagen, Denmark, under approval by the National Committee of Animal Ethics, Denmark, and adhered to the standards of EU Directive 2010/63/EU. The mouse pneumonia model was performed by Evotec Ltd, United Kingdom, under UK Home Office Licenses and with local ethical committee clearance. All animal studies were contracted by Adenium Biotech ApS.\nPeptides were prepared in Ringer’s acetate pH 6.0 (vehicle) at 34 mg mL^−1. Comparator antibiotics included meropenem (Meronem®, AstraZeneca), polymyxin B sulfate (Sigma) and tobramycin (Novartis).\nThe E. coli UTI in vivo model was prepared using an E. coli DSA 443 ESBL strain, in neutropenic outbred OF-1 female mice (Charles River, France). Starting 4 days before inoculation mice were given drinking water with 5% glucose. On day 0 mice were anaesthetized and inoculated with 50 μL bacterial suspension (1 × 10^9 CFU mL^−1) of E. coli DSA 443 ESBL, via a catheter in the urethra into the bladder. On days 1 and 2, mice were treated i.v. with vehicle (n = 18) or with twice-daily administrations of 5 mg kg^−1 AA139 (n = 12) or 40 mg kg^−1 meropenem (n = 12). Urine samples were taken on days 1–3 and on day 3 mice were killed and urine, kidneys, and bladder were collected for CFU counts on agar.", "data": [{"smiles": "C[C@@H](O)[C@H]1C(=O)N2C(C(=O)O)=C(S[C@@H]3CN[C@H](C(=O)N(C)C)C3)[C@H](C)[C@H]12", "note": "[Meropenem, meropenem, reference compound]", "values": [{"measurement": "DAY 3 BLADDER, Median", "setting": "ESBL E. coli DSA 443, Meropenem 40 mg kg-1, bladder, median of n = 12", "result": 3.32}, {"measurement": "DAY 3 KIDNEY, Mean", "setting": "ESBL E. coli DSA 443, Meropenem 40 mg kg-1, kidney, mean of n = 12", "result": 1.644}, {"measurement": "DAY 3 KIDNEY, Median", "setting": "ESBL E. coli DSA 443, Meropenem 40 mg kg-1, kidney, median of n = 12", "result": 1.4}, {"measurement": "DAY 3 URINE, Mean", "setting": "ESBL E. coli DSA 443, Meropenem 40 mg kg-1, urine, mean of n = 11", "result": 1.229}, {"measurement": "DAY 3 URINE, Median", "setting": "ESBL E. coli DSA 443, Meropenem 40 mg kg-1, urine, median of n = 11", "result": 1}]}]}
